Data as given in patent US12458605B2, “Lipid nanoparticle” (National University Corporation Hokkaido University, priority 2020, dated 2025).

Tests used:
[1] = Average particle size (ζ-Average) and PDI by dynamic light scattering (Zetasizer Nano ZSP); format: physicochemical
Protocol: The average particle size (ζ-Average) and PDI in PBS(−) of lipid nanoparticles were measured using “Zetasizer Nano ZSP”, an analyzer utilizing dynamic light scattering (manufactured by Malvern).
Measurement of average particle size and PDI of the lipid nanoparticles were carried out with the same method as the measurement of average particle size of mRNA-LNP.
The average particle size (ζ-Average) and PDI in PBS (−) of lipid nanoparticles were measured using “Zetasizer Nano ZSP”, an analyzer utilizing dynamic light scattering (manufactured by Malvern).

[2] = siRNA/mRNA encapsulation rate by Ribogreen reagent (section IV); format: physicochemical; conditions: for % siRNA encapsulation: F7siRNA-loaded LNP, 50:10:38.5:1.5, N/P ratio 6; for % mRNA encapsulation: FlucmRNA-loaded LNP, 50:10:38.5:1.5
Protocol: The encapsulation rates of siRNA and mRNA of lipid nanoparticles were measured with Ribogreen reagent. A solution diluted with TE buffer solution was arranged so that lipid nanoparticle concentration as nucleic acid concentration to be 8 μg/mL, as a solution for measuring nanoparticle surface nucleic acid concentration. In addition, a solution for measuring total nucleic acid concentration was arranged so that lipid nanoparticle concentration as nucleic acid concentration to be 1.2 μg/mL, which is 1% (w/w) concentration of X-triton100, by adding X-triton100. For 100 μL of each solution, 100 μL of Ribogreen (registered trademark) reagent (Quant-iT™ RiboGreen™ RNA Reagent, manufactured by Thermofisher Scientific) was mixed well in the wells of 96-well microplate (black, made of polystyrene, flat bottom, manufactured by Corning), and the fluorescence intensity at an excitation wavelength of 485 nm and a measurement wavelength of 528 nm was measured with a microplate reader. Nucleic acid concentration was calculated by calibration curve created by measuring the fluorescence intensity of nucleic acid solution containing 1% X-triton100 (nucleic acid concentration: 0-2.5 μg/mL) as same as aforementioned. Nucleic acid encapsulation rate of each lipid nanoparticle was calculated by the following formula: Encapsulation rate %=(nucleic acid concentration in solution for measuring total nucleic acid concentration (μg/mL)−nucleic acid concentration in solution for measuring nanoparticle surface nucleic acid concentration (μg/mL))/nucleic acid concentration in solution for measuring total nucleic acid concentration (μg/mL)×100. <Results>
The encapsulation rate of mRNA of lipid nanoparticles was measured using Ribogreen (manufactured by life technologies).

[3] = test system: liver; experiment: In vivo Fluc activity of FlucmRNA-loaded LNP by in vivo imaging, liver; conditions: Balb/c mice, 6 hours; for Fluc Activity in liver: FlucmRNA-loaded LNP i.v. 0.1 mg mRNA/kg
Protocol: (§1) Then, each prepared FlucmRNA-loaded lipid nanoparticles were administered to Balb/c mice (Charles River Laboratories Japan, Inc., 7 weeks old, female) and in vivo gene expression activity was examined. Specifically, each FlucmRNA-loaded lipid nanoparticles were intravenously administered to Balb/c mice at 0.1 mg mRNA/kg, and Fluc activities in the liver and spleen at 6 hours later were measured. Fluc activity was measured by in vivo imaging system (Perkin Elmer, IVIS200) after administration of VivoGlo Luciferin, In Vivo Grade (Promega, P1041) dissolved with PBS to 15 mg/mL, via tail vein at a dose of 1.5 mg per mouse. The unit of Fluc activity is the emission intensity per unit area (Avg Radiance [p/s/cm2/sr]) at the maximum emission wavelength of about 560 nm. The results of measurement of the Fluc activity (Avg Radiance [p/s/cm2/sr]) in the liver and spleen of mice administered each FlucmRNA-loaded lipid nanoparticles are shown in Tables 5-7.

[4] = test system: spleen; experiment: In vivo Fluc activity of FlucmRNA-loaded LNP by in vivo imaging, spleen; conditions: Balb/c mice, 6 hours; for Fluc activity in the spleen, compared with CL4F6: versus LNP comprising CL4F6 (Tables 5 and 6); for Fluc Activity in spleen: FlucmRNA-loaded LNP i.v. 0.1 mg mRNA/kg
Protocol: as §1

[5] = test system: F7; experiment: In vivo F7 knockdown, plasma F7 enzyme activity (BIOPHEN FVII), Balb/c mice; conditions: for F7 enzyme activity (%) / F7 enzyme activity (Ratio using MC3 as 1): i.v. 0.025 mg siRNA/kg, plasma at 24 hours; for F7 enzyme activity (%): untreated mice as 100%; for knockdown activity, compared with MC3: F7siRNA-loaded LNP, versus LNP comprising MC3; for F7 enzyme activity (Ratio using MC3 as 1): relative plasma F7 activity of MC3 LNP as 1
Protocol: Then, each prepared F7siRNA-loaded lipid nanoparticles were administered to Balb/c mice (Charles River Laboratories Japan, Inc., 5 weeks old, female) and in vivo F7 knockdown activity was examined. Specifically, BALB/c mice were intravenously administered F7siRNA-loaded lipid nanoparticles comprising the lipids described in Table 9 at 0.025 mg siRNA/kg and F7siRNA-loaded lipid nanoparticles comprising the lipids described in Tables 10 and 11 at 0.025 mg siRNA/kg, and the plasma F7 enzyme activity at 24 hours later was measured using BIOPHEN FVII (Biophen, A221304). Relative plasma F7 enzyme activity (%) of mice administered each F7siRNA-loaded lipid nanoparticles was calculated using plasma F7 enzyme activity of untreated mice as 100%. Furthermore, the ratio was calculated using the relative plasma F7 enzyme activity (%) of mice administered MC3-comprising F7siRNA-loaded lipid nanoparticles as 1. The results of measurement of CL4F6 derivative nanoparticles are shown in Tables 9 and 10, and results of measurement of CL15F6 derivative nanoparticles in Table 11.

[6] = Storage stability of FlucmRNA-loaded LNP at −80, 5, 25 and 40° C.; format: physicochemical; conditions: for period for which quality remained good, −80° C.: maximum storage period 1 week; for period for which quality remained good, 5° C. / period for which quality remained good, 25° C. / period for which quality remained good, 40° C. (weeks): maximum storage period 5 weeks
Protocol: Lipid nanoparticles were allowed to stand at each temperature of −80° C., 5° C., 25° C., and 40° C., and after keeping for each period of time, average particle size, PDI, and nucleic acid encapsulation rate were measured. Lipid nanoparticles which satisfy following all three conditions were defined that the quality was remained well: the average particle size is maintained within +/−20 nm based on the date of LNP preparation; PDI remains high uniformity with a value of 0.2 or less; and the nucleic acid encapsulation rate is also maintained at 80% or more. As a result of measuring average particle size, PDI, and nucleic acid encapsulation rate after each FlucmRNA-loaded lipid nanoparticle was allowed to stand at −80° C., 5° C., 25° C., and 40° C. respectively and kept for each period of time, periods of time defined as the quality of the lipid nanoparticles was remained well are shown in Tables 13 and 14. The lipid nanoparticles which remain in good quality with standing at 5° C. for one week or more can be evaluated as having excellent stability.

[7] = F7siRNA-loaded LNP, 50:10:38.5:1.5, N/P ratio 6
[8] = FlucmRNA-loaded LNP, 50:10:38.5:1.5
[9] = FlucmRNA-loaded LNP, lipid:DSPC:cholesterol:DMG-PEG2K 50:10:38.5:1.5
[10] = 0.1 mg mRNA/kg, versus LNP comprising CL15F6 (Table 7)

Row | Structure (SMILES) | PDI [1, 7] | ζ-Average (nm) [1, 7] [nm] | PDI [1, 8] | ζ-Average (nm) [1, 9] [nm] | % siRNA encapsulation [2] [%] | % mRNA encapsulation [2] [%] | Fluc activity in the liver, compared with CL4F6 ([3]; 0.1 mg mRNA/kg, versus LNP comprising CL4F6 (Tables 5 and 6)) | Fluc Activity in liver [3] | Fluc activity in the spleen, compared with CL4F6 ([4]; 0.1 mg mRNA/kg) | Fluc Activity in spleen [4] | F7 enzyme activity (%) [5] [%] | period for which quality remained good, −80° C. [6] [week] | period for which quality remained good, 5° C. [6] [weeks] | period for which quality remained good, 25° C. [6] [weeks] | period for which quality remained good, 40° C. (weeks) [6] | knockdown activity, compared with MC3 [5] | F7 enzyme activity (Ratio using MC3 as 1) [5] | Fluc activity in the liver, compared with CL15F6 [3, 10] | Fluc activity in the spleen, compared with CL15F6 [4, 10]
1 | CCCCCCC(CCCCCC)C(=O)OCCCCCCC(O)(CCCCCCOC(=O)C(CCCCCC)CCCCCC)CCCCN(CCC)CCC [CL4F 8-6] | 0.010 | 99.72 | 0.022 | 88.78 | 100.0 | 99.4 | higher Fluc activity | 1.80E+08 Avg Radiance [p/s/cm2/sr] | higher Fluc activity | 9.58E+06 Avg Radiance [p/s/cm2/sr] | 3 | 1 | 5 | 5 | 1 week weeks |  |  |  | 
2 | CCCCCCCCCCC(CCCCCCCCCC)C(=O)OCCCCCCC(O)(CCCCCCOC(=O)C(CCCCCCCCCC)CCCCCCCCCC)CCCCN(CCC)CCC [CL4F 12-10] | 0.015 | 85.62 | 0.019 | 75.85 | 99.2 | 99.6 |  | 3.09E+07 Avg Radiance [p/s/cm2/sr] |  | 2.77E+05 Avg Radiance [p/s/cm2/sr] | 80.6 | 1 | 5 | 5 | 5 weeks |  |  |  | 
3 | CCCCCCCC(CCCCC)C(=O)OCCCCCCC(O)(CCCCCCOC(=O)C(CCCCC)CCCCCCC)CCCCN(CCC)CCC (stereo not drawn) [CL4F 9-5] | 0.032 | 99.72 | 0.048 | 89.41 | 99.9 | 99.0 |  | 6.84E+07 Avg Radiance [p/s/cm2/sr] | higher Fluc activity | 9.53E+06 Avg Radiance [p/s/cm2/sr] |  | 1 | 5 | 5 | 5 weeks | higher knockdown activity | 0.43 |  | 
4 | CCCCCCCCC(CCCCCCC)C(=O)OCCCCCCC(O)(CCCCCCOC(=O)C(CCCCCCC)CCCCCCCC)CCCCN(CCC)CCC (stereo not drawn) [CL4F 10-7] | 0.013 | 89.34 | 0.039 | 79.68 | 100.1 | 99.8 |  | 1.19E+08 Avg Radiance [p/s/cm2/sr] |  | 2.03E+06 Avg Radiance [p/s/cm2/sr] | 4.1 | 1 | 5 | 5 | 5 weeks |  |  |  | 
5 | CCCCCCCCCC(CCCCCCCCC)C(=O)OCCCCCCC(O)(CCCCCCOC(=O)C(CCCCCCCCC)CCCCCCCCC)CCCCOC(=O)C1CCN(C)CC1 [CL15F 11-9] | 0.029 | 104.9 | 0.023 | 99.31 | 101.1 | 99.78 |  | 3.66E+07 Avg Radiance [p/s/cm2/sr] |  | 7.55E+06 Avg Radiance [p/s/cm2/sr] |  | 1 | 5 | 5 | 5 weeks | higher knockdown activity | 0.50 | higher Fluc activity | higher Fluc activity
6 | CCCCCCC(CCCCC)C(=O)OCCCCCCC(O)(CCCCCCOC(=O)C(CCCCC)CCCCCC)CCCCN(CCC)CCC (stereo not drawn) [CL4F 8-5] | 0.034 | 103.40 | 0.043 | 94.65 | 99.7 | 99.1 |  | 4.80E+07 Avg Radiance [p/s/cm2/sr] | higher Fluc activity | 1.45E+07 Avg Radiance [p/s/cm2/sr] |  | 1 | 5 | 5 | 5 weeks | higher knockdown activity | 0.38 |  | 
